Values quoted from earlier work in US20250258260A1, “MEGLUMINE BASED FORMULATIONS FOR DYNAMIC NUCLEAR POLARIZATION” (THE BOARD OF REGENTS OF THE UNIVERSITY OF TEXAS SYSTEM, priority 2024, published 2025).
≈ marks a conversion by molar mass, not a printed value. Where two headings read alike, the source gives them in different places.

Key:
muscle function = settings: 18 mM in drinking water for at least 30 days
[1] = at 11.7 T using water as solvent

O=C(O)/C=C/C(=O)O [fumaric acid]
solubility in water (at 25° C.): 6000 µg/mL (≈ 51.7 mM)

CNC[C@H](O)[C@@H](O)[C@H](O)[C@H](O)CO [meglumine]
solubility in water: up to 1 g/mL
effect of supplementation (muscle function): favorable effect on muscle function

O=[13C](O)/C=C/[13C](=O)O [[1,4-^13C2]fumarate]
T1 [1]: 29 s
